Measurements from patent US7589070B2, “Surface modification for improving biocompatibility” (The Children's Hospital of Philadelphia, priority 2001, dated 2009).

Assays:
[1] = Surface phosphorus content of pamidronate-treated steel by SEM and EDAX; type: physicochemical
[2] = system: rat A10 arterial smooth muscle cells; experiment: In vitro transduction of A10 cells by adenovirus GFP tethered to steel stents/rods; type: cell-based
Procedure: A type 5 adenovirus vector encoding GFP was used in this experiment. Stainless steel stents were incubated with amino-pamidronate, SPDP and anti-adenovirus knob F(ab)′2 antibody; amino-pamidronate and SPDP; amino-pamidronate only; or a stent only, without modification. The specific anti-adenovirus knob F(ab′)2 bound stents were incubated in the ad-GFP solution for 1 hour at 37 C. The virus loading in the incubation pool was 1×10^8 pfu/stent for all groups. The stents were then removed from the virus pool and rinsed with PBS followed by overnight washing. Images obtained by atomic force microscopy confirmed that high levels of vector immobilization could be achieved by this method.
The virus binding efficacy was evaluated in vitro using rat A10 arterial smooth muscle cells. A cell suspension of 5×10^4 A10 cells per ml of M199 medium was prepared with 10% FBS and 1% penicillin/streptomycin. The stent was rinsed with M199 medium once and equilibrated in the M199 medium at 37 C. for 10 minutes in a 6 well culture plate. The medium from the wells was aspirated, holding the stents, and 2 ml cell suspension was added to each well. Cell transduction was observed by fluorescence microscopy using a FITC filter. […] 90% of cells with adenovirus GFP anti-the antibody bound stent were transduced. […] Consequently, transduction efficiency is enhanced in vitro in antibody-bound stents compared to control stents.
A10 smooth muscle cells were transduced with SPDP-anti-adenovirus knob F(ab)′2 antibody-adenovirus GFP bound stainless steel rods, and pretreated with either 1.5 M pamidronate, 3.0 M pamidronate or 5.0 M pamidronate. Cell transduction was proportional to the pamidronate concentration used in a reaction. […] Accordingly, A10 cell transduction efficiency is related to pamidronate concentration used in the reaction.

With `NCCC(O)(P(=O)(O)O)P(=O)(O)O` [pamidronate, 3-amino-hydroxypropylidene-1,1-bisphosphonic acid] the “phosphorus percent by weight” value ([1]; stainless steel rod after reaction with pamidronate at pH 5, EDAX) was 13%, the “phosphorus percent by weight” value ([1]; stainless steel rod after reaction with pamidronate at pH 7, EDAX) was 1% and the “cell transduction (qualitative)” value ([2]; pretreated with 5 M pamidronate) was “did not show much increase in cell transduction”. For the same molecule, the “cell transduction (qualitative)” value ([2]; steel rods pretreated with 1.5 M pamidronate) was “much less cell transduction” and the “cell transduction (qualitative)” value ([2]; steel rods pretreated with 3.0 M pamidronate) was “optimal”.
